Measured values reported in patent US9435792B2, “Hemolysis reagent composition for hemoglobin A1C quantitative analysis using enzymatic method” (I-Sens, Inc., priority 2012, dated 2016).

Experiment: Evaluation of solubility of surfactant
Type: physicochemical
Settings: surfactant dissolved in distilled water to a concentration of 0.75 mg/mL
Procedure: In order to use a surfactant, it is essential that the solubility of a sample itself be excellent. First of all, if the sample is not dissolved it cannot be used at all, and thus the solubility of a surfactant was evaluated as a prerequisite.

Q: For CCCCCCCCCCCCCC(=O)NCCC[N+](C)(C)CCCS(=O)(=O)[O-] [Comp. Ex. 1], which Solubility is on record?
A: ∘ (dissolved at a concentration of 0.75 mg/mL)
